Numbers after ± are expanded uncertainties.
What was measured:
[1] = xn = mol fraction of the nth substance listed; conditions: 101 kPa, Liquid; for viscosity: Capillary tube (Ostwald / Ubbelohde) method; for mass density: Vibrating tube method
[2] = refractive index (Na D-line) (dimensionless); xn = mol fraction of the nth substance listed; conditions: 101 kPa, Liquid, Standard Abbe refractometry

CC(C)=O [acetone] + CO
Conditions	mass density, [1] [kg/m3]	refractive index, [2]	viscosity, [1] [mPa·s]
298.15 K, x2 = 0	784.41 ± 0.12	1.3558 ± 0.0006	0.3034 ± 0.0024
298.15 K, x2 = 0.1036	786.21 ± 0.12	1.3539 ± 0.0006	0.3003 ± 0.0024
298.15 K, x2 = 0.2043	787.49 ± 0.12	1.3521 ± 0.0006	0.3006 ± 0.0024
298.15 K, x2 = 0.302	788.57 ± 0.12	1.3502 ± 0.0006	0.3059 ± 0.0024
298.15 K, x2 = 0.4013	789.53 ± 0.12	1.3483 ± 0.0006	0.3143 ± 0.0025
298.15 K, x2 = 0.5004	790.3 ± 0.12	1.3458 ± 0.0006	0.3299 ± 0.0026
298.15 K, x2 = 0.6006	790.81 ± 0.12	1.3426 ± 0.0006	0.3533 ± 0.0027
298.15 K, x2 = 0.6969	790.98 ± 0.12	1.3389 ± 0.0006	0.3852 ± 0.0029
298.15 K, x2 = 0.802	790.73 ± 0.12	1.3352 ± 0.0006	0.4316 ± 0.0031
298.15 K, x2 = 0.8965	789.83 ± 0.12	1.3315 ± 0.0006	0.4833 ± 0.0034
303.15 K, x2 = 0	778.66 ± 0.12	1.3534 ± 0.0006	0.2966 ± 0.0024
303.15 K, x2 = 0.1036	780.47 ± 0.12	1.3513 ± 0.0006	0.295 ± 0.0024
303.15 K, x2 = 0.2043	781.81 ± 0.12	1.3497 ± 0.0006	0.2939 ± 0.0024
303.15 K, x2 = 0.302	782.95 ± 0.12	1.3482 ± 0.0006	0.2987 ± 0.0024
303.15 K, x2 = 0.4013	784 ± 0.12	1.3464 ± 0.0006	0.3073 ± 0.0025
303.15 K, x2 = 0.5004	784.89 ± 0.12	1.3439 ± 0.0006	0.3188 ± 0.0025
303.15 K, x2 = 0.6006	785.55 ± 0.12	1.3407 ± 0.0006	0.34 ± 0.0026
303.15 K, x2 = 0.6969	785.85 ± 0.12	1.3369 ± 0.0006	0.3663 ± 0.0028
303.15 K, x2 = 0.802	785.67 ± 0.12	1.3328 ± 0.0006	0.4051 ± 0.003
303.15 K, x2 = 0.8965	784.85 ± 0.12	1.3291 ± 0.0006	0.4472 ± 0.0032
308.15 K, x2 = 0	773.08 ± 0.13	1.3509 ± 0.0006	0.2831 ± 0.0024
308.15 K, x2 = 0.1036	774.93 ± 0.13	1.3493 ± 0.0006	0.2807 ± 0.0023
308.15 K, x2 = 0.2043	776.27 ± 0.12	1.3481 ± 0.0006	0.2803 ± 0.0023
308.15 K, x2 = 0.302	777.4 ± 0.12	1.3465 ± 0.0006	0.2844 ± 0.0024
308.15 K, x2 = 0.4013	778.45 ± 0.12	1.3444 ± 0.0006	0.2945 ± 0.0024
308.15 K, x2 = 0.5004	779.36 ± 0.12	1.3419 ± 0.0006	0.3103 ± 0.0025
308.15 K, x2 = 0.6006	780.05 ± 0.12	1.3385 ± 0.0006	0.3255 ± 0.0025
308.15 K, x2 = 0.6969	780.38 ± 0.12	1.3349 ± 0.0006	0.3531 ± 0.0027
308.15 K, x2 = 0.802	780.24 ± 0.12	1.3309 ± 0.0006	0.3857 ± 0.0029
308.15 K, x2 = 0.8965	779.53 ± 0.12	1.3269 ± 0.0006	0.4278 ± 0.0031
313.15 K, x2 = 0	766.95 ± 0.13	1.349 ± 0.0006	0.2689 ± 0.0023
313.15 K, x2 = 0.1036	768.83 ± 0.13	1.3469 ± 0.0006	0.2647 ± 0.0023
313.15 K, x2 = 0.2043	770.26 ± 0.13	1.3457 ± 0.0006	0.2657 ± 0.0023
313.15 K, x2 = 0.302	771.49 ± 0.13	1.3435 ± 0.0006	0.2704 ± 0.0023
313.15 K, x2 = 0.4013	772.65 ± 0.13	1.3415 ± 0.0006	0.2769 ± 0.0023
313.15 K, x2 = 0.5004	773.67 ± 0.12	1.3392 ± 0.0006	0.2881 ± 0.0024
313.15 K, x2 = 0.6006	774.49 ± 0.12	1.3362 ± 0.0006	0.3057 ± 0.0024
313.15 K, x2 = 0.6969	775.01 ± 0.12	1.3329 ± 0.0006	0.3316 ± 0.0026
313.15 K, x2 = 0.802	775.12 ± 0.12	1.3289 ± 0.0006	0.3619 ± 0.0027
313.15 K, x2 = 0.8965	774.65 ± 0.12	1.3253 ± 0.0006	0.3989 ± 0.0029
318.15 K, x2 = 0	761.26 ± 0.13	1.3449 ± 0.0006	0.2511 ± 0.0022
318.15 K, x2 = 0.1036	763.15 ± 0.13	1.3432 ± 0.0006	0.2478 ± 0.0022
318.15 K, x2 = 0.2043	764.64 ± 0.13	1.3414 ± 0.0006	0.2494 ± 0.0022
318.15 K, x2 = 0.302	765.92 ± 0.13	1.3397 ± 0.0006	0.2526 ± 0.0022
318.15 K, x2 = 0.4013	767.11 ± 0.13	1.3381 ± 0.0006	0.2601 ± 0.0022
318.15 K, x2 = 0.5004	768.17 ± 0.13	1.3361 ± 0.0006	0.2692 ± 0.0023
318.15 K, x2 = 0.6006	769.04 ± 0.13	1.3334 ± 0.0006	0.2903 ± 0.0024
318.15 K, x2 = 0.6969	769.62 ± 0.13	1.3303 ± 0.0006	0.3096 ± 0.0025
318.15 K, x2 = 0.802	769.88 ± 0.12	1.3262 ± 0.0006	0.3377 ± 0.0026
318.15 K, x2 = 0.8965	769.53 ± 0.12	1.3221 ± 0.0006	0.375 ± 0.0028

Reference: the NIST ThermoML archive (doi:10.1016/j.fluid.2018.10.024)
